Test results: patent US4705799A, “Aminomethyl oxooxazolidinyl benzenes useful as antibacterial agents” (E. I. Du Pont de Nemours and Company, priority 1985, dated 1987)

What was measured:
[1] = test system: Escherichia coli; experiment: In vitro broth dilution minimal inhibitory concentration (standard microdilution method); assay type: cell-based
[2] = test system: Staphylococcus aureus; experiment: In vivo efficacy of compounds administered subcutaneously in mouse intraperitoneal infections; conditions: sc, 168 h; mouse i.p. Staphylococcus aureus infection; subcutaneous; dosed at infection and 4 h post-infection; 7 days; read-out: ED50 (50 percent effective dose)
[3] = test system: Staphylococcus aureus; experiment: In vivo efficacy of orally administered compounds in mouse intraperitoneal infections
[4] = test system: Staphylococcus epidermidis; experiment: In vitro broth dilution minimal inhibitory concentration (standard microdilution method); assay type: cell-based; conditions: 24 h, Mueller-Hinton broth, 24-hour, read-out: Microdilution Broth MIC
[5] = test system: Staphylococcus aureus; experiment: In vitro test, same procedures as microdilution MIC; assay type: cell-based; conditions: same procedures as Table 9
Excerpt: It is believed that the compound of Example 123 would provide control at higher concentrations or under different conditions.

- MIC ([1]; Escherichia coli, Mueller-Hinton broth, 24-hour, read-out: Microdilution Broth MIC): > 200 µg/mL
- MIC [4]: > 200 µg/mL
SMILES: CCCCCCN(CC1CN(c2ccc(S(C)(=O)=O)cc2)C(=O)O1)C(=O)OC (racemic) [Example 123, (dl)-N-hexyl-N-[3-[4-(methylsulfonyl)phenyl]-2-oxooxazolidin-5-ylmethyl]carbamic acid, methyl ester]
- control of Escherichia coli in vitro ([1]; same procedures as Table 9, result in words): no control
- ED50 [2]: 46.6 mg/kg
- ED50 ([3]; Staphylococcus aureus, po, 168 h, mouse i.p. Staphylococcus aureus infection, oral, dosed at infection and 4 h post-infection, 7 days, read-out: ED50 (50 percent effective dose)): 27.6 mg/kg
- antibacterial effect in vivo ([3]; in vivo, see Tables 10 and 11): found to exhibit an antibacterial effect in vivo
- control of Staphylococcus aureus in vitro [5]: no control
